US10786580B2, “Cholecystokinin 2 receptor targeted NIR imaging and use thereof” (On Target Laboratories, LLC, priority 2016, dated 2020)
pKd, pKi: −log10 of the molar value. Read-outs that look alike come from different tables or passages of the source.

Experiments:
[1] = molecular target: T1, CCK2R (Homo sapiens, UniProt P32239); assay: In vitro binding of CCK2R-NIR compounds to HEK-CCK2R cells (cell bound fluorescence); design: expressed in transfected cells; host or cells: HEK (human embryonic kidney) cells, HEK-CCK2R, gift from Dr. Mark Hellmich (UTMB); conditions: for pKd: CCK2R-positive HEK-CCK2R cancer cells, 1 h at 37° C., read-out: KD; for affinity for CCK2R (in words): in vitro binding affinity data
T1 sequence (P32239 1-447): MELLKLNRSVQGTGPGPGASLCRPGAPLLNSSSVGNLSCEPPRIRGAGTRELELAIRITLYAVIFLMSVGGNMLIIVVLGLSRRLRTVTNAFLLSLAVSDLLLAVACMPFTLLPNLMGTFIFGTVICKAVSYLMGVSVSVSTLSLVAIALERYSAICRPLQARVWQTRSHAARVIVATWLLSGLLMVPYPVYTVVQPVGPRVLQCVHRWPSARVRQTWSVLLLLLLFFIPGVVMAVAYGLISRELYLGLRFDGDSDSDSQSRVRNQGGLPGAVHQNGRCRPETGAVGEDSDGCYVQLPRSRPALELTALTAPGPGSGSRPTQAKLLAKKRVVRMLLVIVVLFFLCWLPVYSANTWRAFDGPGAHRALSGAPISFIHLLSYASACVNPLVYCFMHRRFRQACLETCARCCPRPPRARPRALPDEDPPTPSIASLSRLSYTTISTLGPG
Description: (§1) FIG. 4 depicts the binding affinities of CCK2R-NIR compounds 21, 42-44 to CCK2R. CCK2R-positive HEK-CCK2R cancer cells were incubated for 1 h at 37° C. with increasing concentrations of compounds. Media was then removed, washed with fresh media three times, and replaced with PBS. Cell bound fluorescence was assayed as using fluorometer.
CCK2R-positive HEK-CCK2R cancer cells were incubated for 1 h at 37° C. with increasing concentrations of compounds. Media was then removed, washed with fresh media three times, and replaced with PBS. Cell bound fluorescence was assayed as using fluorometer.
as §1, with “13 illustrates” for “4 depicts”, “affinity” for “affinities”, “of” for “of CCK2R-NIR”, “[…]” for “21, 42-44”, “compound 21.” for “compounds.”
HEK-CCK2 cells (a human embryonic kidney cells transfected with CCK2 receptor) were a kind gift from Dr. Mark Hellmich (University of Texas Medical Branch, Galveston, Tex.) and grown as a monolayer using Dulbecco's Modified Eagles Medium (GIBCO) (Gibco, NY) 10% heat-inactivated fetal bovine serum (Atlanta Biological, GA) and 1% penicillin streptomycin (Gibco, NY) in a 5% carbon dioxide: 95% air-humidified atmosphere at 37° C. for at least six passages before they were used for the assays.
HEK cells that overexpress CCK2 were seeded into a T75 flask and allowed to form a monolayer over 48 h. After trypsin digestion, release cells were transferred into centrifuge tubes (1×10^6 cells/tube) and centrifuged. The medium was replaced with fresh medium containing increasing concentration of requisite CCK2R-Ligand-NIR dye compound in the presence or absence of 100-fold excess the ligand, a high affinity CCK2 receptor antagonist, and incubated for 1 h at 37° C. After rinsing with fresh medium (2×1.0 mL) and PBS (1×1.0 mL), cells were resuspended in PBS (1.0 mL) and cell bound fluorescence was analyzed (100,000 cells/sample) using a fluorometer (Cary, Agilent). The relative binding affinities were calculated using a plot of % cell bound fluorescence versus the log concentration of the test article using GraphPad Prism 4.

[2] = test system: subcutaneous PANC-1 tumor; conditions: oral Z-360 along with gemcitabine, cited from earlier work
[3] = molecular target: T1, CCK2R; conditions: cited from earlier work
[4] = molecular target: T2, CCK1R (Homo sapiens, UniProt P32238); conditions: cited from earlier work
T2 sequence (P32238 1-428): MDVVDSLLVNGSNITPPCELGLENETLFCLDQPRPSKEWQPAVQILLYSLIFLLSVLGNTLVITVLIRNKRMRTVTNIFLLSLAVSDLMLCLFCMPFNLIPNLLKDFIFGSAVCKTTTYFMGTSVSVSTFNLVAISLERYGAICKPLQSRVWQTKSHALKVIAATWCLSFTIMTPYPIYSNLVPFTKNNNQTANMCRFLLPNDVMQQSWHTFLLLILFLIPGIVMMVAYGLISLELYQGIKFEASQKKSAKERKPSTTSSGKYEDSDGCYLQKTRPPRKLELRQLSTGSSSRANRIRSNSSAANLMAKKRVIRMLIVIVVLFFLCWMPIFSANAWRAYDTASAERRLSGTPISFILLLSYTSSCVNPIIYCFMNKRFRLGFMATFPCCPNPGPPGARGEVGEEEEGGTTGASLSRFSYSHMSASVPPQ

Row | Structure (SMILES) | affinity for CCK2R (in words) ([1]; HEK-CCK2R cells) | pKd ([1]; Table 2) | other results
1 | CC(C)(C)C(=O)CN1C(=O)[C@H](NC(=O)Nc2cccc(C(=O)N[C@H](CCC(=O)N[C@@H](CCCNC(=N)N)C(=O)N[C@@H](Cc3ccc(OC4=C(/C=C/C5=[N+](CCCCS(=O)(=O)[O-])c6ccc(S(=O)(=O)O)cc6C5(C)C)CCC/C4=C\C=C4\N(CCCCS(=O)(=O)O)c5ccc(S(=O)(=O)O)cc5C4(C)C)cc3)C(=O)O)C(=O)O)c2)CN(C2CCCCC2)c2ccccc21 [Compound 42] | relatively weaker affinity | – | pKd ([1]; Table 1): 8.76
2 | CC(C)(C)C(=O)CN1C(=O)[C@@H](NC(=O)Nc2cccc(C(=O)N[C@H](CCC(=O)O)C(=O)N[C@H](Cc3ccc(OC4=C(/C=C/C5=[N+](CCCCS(=O)(=O)[O-])c6ccc(S(=O)(=O)O)cc6C5(C)C)CCC/C4=C\C=C4\N(CCCCS(=O)(=O)O)c5ccc(S(=O)(=O)O)cc5C4(C)C)cc3)C(=O)O)c2)CN(C2CCCCC2)c2ccccc21 [Compound 43] | very high affinity | – | –
3 | CC(C)(C)C(=O)CN1C(=O)[C@H](NC(=O)Nc2cccc(C(=O)NCCCC(=O)N[C@@H](Cc3ccc(OC4=C(/C=C/C5=[N+](CCCCS(=O)(=O)[O-])c6ccc(S(=O)(=O)O)cc6C5(C)C)CCC/C4=C\C=C4\N(CCCCS(=O)(=O)O)c5ccc(S(=O)(=O)O)cc5C4(C)C)cc3)C(=O)O)c2)CN(C2CCCCC2)c2ccccc21 [Compound 48] | very high affinity | 9.05 | affinity for CCK2R compared to compound 21 ([1]; HEK-CCK2R cells): less affinity
4 | CC(C)(C)C(=O)CN1C(=O)[C@H](NC(=O)Nc2cccc(C(=O)NCCCC(=O)N[C@H](Cc3ccc(OC4=C(/C=C/C5=[N+](CCCCS(=O)(=O)[O-])c6ccc(S(=O)(=O)O)cc6C5(C)C)CCC/C4=C\C=C4\N(CCCCS(=O)(=O)O)c5ccc(S(=O)(=O)O)cc5C4(C)C)cc3)C(=O)O)c2)CN(C2CCCCC2)c2ccccc21 [Compound 49] | – | 7.86 | –
5 | CC(C)(C)C(=O)CN1C(=O)[C@H](NC(=O)Nc2cccc(C(=O)O)c2)CN(C2CCCCC2)c2ccccc21 [Compound Z-360] | – | – | inhibition of subcutaneous PANC-1 tumor growth ([2]; compared with either agent alone): 27.1%; survival compared with the vehicle [2]: significantly increased survival; pKi [3]: 9.33; selectivity ratio over CCK1R [4]: 672

The next lines start with results.

Row | affinity for CCK2R (in words) ([1]; HEK-CCK2R cells) | pKd ([1]; Table 2) | Structure (SMILES) | other results
6 | relatively weaker affinity | – | CC(C)(C)C(=O)CN1C(=O)[C@@H](NC(=O)Nc2cccc(C(=O)N[C@@H](CCC(=O)N[C@H](CCCNC(=N)N)C(=O)N[C@H](CC(=O)O)C(=O)N[C@H](Cc3ccc(OC4=C(/C=C/C5=[N+](CCCCS(=O)(=O)[O-])c6ccc(S(=O)(=O)O)cc6C5(C)C)CCC/C4=C\C=C4\N(CCCCS(=O)(=O)O)c5ccc(S(=O)(=O)O)cc5C4(C)C)cc3)C(=O)O)C(=O)O)c2)CN(C2CCCCC2)c2ccccc21 [Compound 44] | –
7 | – | 8.64 | CC(C)(C)C(=O)CN1C(=O)[C@H](NC(=O)Nc2cccc(C(=O)N[C@@H](CCC(=O)N[C@@H](Cc3ccc(OC4=C(/C=C/C5=[N+](CCCCS(=O)(=O)[O-])c6ccc(S(=O)(=O)O)cc6C5(C)C)CCC/C4=C\C=C4\N(CCCCS(=O)(=O)O)c5ccc(S(=O)(=O)O)cc5C4(C)C)cc3)C(=O)O)C(=O)O)c2)CN(C2CCCCC2)c2ccccc21 [Compound 45] | –
8 | relatively weak affinity | 7.83 | CC(C)(C)C(=O)CN1C(=O)[C@@H](NC(=O)Nc2cccc(C(=O)N[C@H](CCC(=O)N[C@@H](Cc3ccc(OC4=C(/C=C/C5=[N+](CCCCS(=O)(=O)[O-])c6ccc(S(=O)(=O)O)cc6C5(C)C)CCC/C4=C\C=C4\N(CCCCS(=O)(=O)O)c5ccc(S(=O)(=O)O)cc5C4(C)C)cc3)C(=O)O)C(=O)O)c2)CN(C2CCCCC2)c2ccccc21 [Compound 47] | –
